Source: patent US20100298141A1, “SUBSTITUTED PYRIDINE N-OXIDE HERBICIDES” (E. I. DU PONT DE NEMOURS AND COMPANY, priority 2007, published 2010)

Tests used:
duck salad = assay: Test B flooded paddy test; assay type: in vivo, Heteranthera limosa; settings: Flood, 250 g ai/ha, 13 to 15 days; scale 0 to 100, 0 no effect, 100 complete control
Text: (§1) At time of treatment, test pots were flooded to 3 cm above the soil surface, treated by application of test compounds directly to the paddy water, and then maintained at that water depth for the duration of the test. Treated plants and controls were maintained in a greenhouse for 13 to 15 days, after which time all species were compared to controls and visually evaluated. […] A dash (-) response means no test result.

rice = assay: Test B flooded paddy test; assay type: in vivo, Oryza sativa; settings: Flood, 250 g ai/ha, 13 to 15 days; scale 0 to 100, 0 no effect, 100 complete control
Text: as §1

umbrella sedge = assay: Test B flooded paddy test; assay type: in vivo, Cyperus difformis; settings: Flood, 250 g ai/ha, 13 to 15 days; scale 0 to 100, 0 no effect, 100 complete control
Text: as §1

annual bluegrass = assay: Test D preemergence test; assay type: in vivo, Poa annua; settings: scale 0 to 100
Text: (§2) Seeds of plant species selected from annual bluegrass (Poa annua), blackgrass (Alopecurus myosuroides), downy bromegrass (Bromus tectorum), field violet (Viola arvensis), green foxtail (Setaria viridis), Italian ryegrass (Lolium multiflorum), littleseed canarygrass (Phalaris minor), spring wheat (Triticum aestivum), wild oat (Avena fatua), […]), winter barley (Hordeum vulgare), and winter wheat (Triticum aestivum) were planted and treated preemergence with test chemicals formulated in a non-phytotoxic solvent mixture which included a surfactant. […] A dash (-) response means no test result.

blackgrass = assay: Test D preemergence test; assay type: in vivo, Alopecurus myosuroides; settings: scale 0 to 100
Text: as §2

field violet = assay: Test D preemergence test; assay type: in vivo, Viola arvensis; settings: scale 0 to 100
Text: as §2

Italian ryegrass = assay: Test D preemergence test; assay type: in vivo, Lolium multiflorum; settings: scale 0 to 100
Text: as §2

littleseed canarygrass = assay: Test D preemergence test; assay type: in vivo, Phalaris minor; settings: scale 0 to 100
Text: as §2

spring wheat = assay: Test D preemergence test; assay type: in vivo, Triticum aestivum; settings: scale 0 to 100
Text: as §2

windgrass = assay: Test D preemergence test; assay type: in vivo, Apera spica-venti; settings: scale 0 to 100
Text: as §2

broadleaf signalgrass = assay: Test G preemergence test; assay type: in vivo, Brachiaria platyphylla; settings: scale 0 to 100
corn = assay: Test G preemergence test; assay type: in vivo, Zea mays; settings: scale 0 to 100
cotton = assay: Test G preemergence test; assay type: in vivo, Gossypium hirsutum; settings: scale 0 to 100
eastern black nightshade = assay: Test G preemergence test; assay type: in vivo, Solanum ptycanthum; settings: scale 0 to 100
fall panicum = assay: Test G preemergence test; assay type: in vivo, Panicum dichotomiflorum; settings: scale 0 to 100
field sandbur = assay: Test G preemergence test; assay type: in vivo, Cenchrus incertus; settings: scale 0 to 100
giant foxtail = assay: Test G preemergence test; assay type: in vivo, Setaria faberii; settings: scale 0 to 100
goosegrass = assay: Test G preemergence test; assay type: in vivo, Eleusine indica; settings: scale 0 to 100
lambsquarters = assay: Test G preemergence test; assay type: in vivo, Chenopodium album; settings: scale 0 to 100
millet foxtail = assay: Test G preemergence test; assay type: in vivo, Setaria italica; settings: scale 0 to 100
sorghum = assay: Test G preemergence test; assay type: in vivo, Sorghum vulgare; settings: scale 0 to 100
soybean = assay: Test G preemergence test; assay type: in vivo, Glycine max; settings: scale 0 to 100
tall waterhemp = assay: Test G preemergence test; assay type: in vivo, Amaranthus tuberculatos; settings: scale 0 to 100
yellow foxtail = assay: Test G preemergence test; assay type: in vivo, Pennisetum glaucum; settings: scale 0 to 100
woolly cupgrass = assay: Test G preemergence test; assay type: in vivo, Eriochloa villosa; settings: scale 0 to 100

## Cc1cc[n+]([O-])c([S+]([O-])Cc2c(C(F)(F)F)nn(C)c2OC(F)F)c1 (stereo not shown) [Compound 1]
Duck salad
  Plant response rating, Ducksalad: 90
rice
  Plant response rating, Rice, Transplanted: 80
Umbrella sedge
  Plant response rating, Umbrella Sedge: 100
Annual bluegrass; 31 g ai/ha
  Plant response rating, Bluegrass: 0
Annual bluegrass; 62 g ai/ha
  Plant response rating, Bluegrass: 75
Annual bluegrass; 125 g ai/ha
  Plant response rating, Bluegrass: 90
Annual bluegrass; 250 g ai/ha
  Plant response rating, Bluegrass: 100
blackgrass; 31 g ai/ha
  Plant response rating, Blackgrass: 5
blackgrass; 62 g ai/ha
  Plant response rating, Blackgrass: 60
blackgrass; 125 g ai/ha
  Plant response rating, Blackgrass: 70
blackgrass; 250 g ai/ha
  Plant response rating, Blackgrass: 100
Field violet; 31 g ai/ha
  Plant response rating, Field Violet: 20
Field violet; 62 g ai/ha
  Plant response rating, Field Violet: 20
Field violet; 125 g ai/ha
  Plant response rating, Field Violet: 20
Field violet; 250 g ai/ha
  Plant response rating, Field Violet: 75
Italian ryegrass; 31 g ai/ha
  Plant response rating, Ryegrass, Italian: 0
Italian ryegrass; 62 g ai/ha
  Plant response rating, Ryegrass, Italian: 20
Italian ryegrass; 125 g ai/ha
  Plant response rating, Ryegrass, Italian: 30
Italian ryegrass; 250 g ai/ha
  Plant response rating, Ryegrass, Italian: 95
Littleseed canarygrass; 31 g ai/ha
  Plant response rating, Canarygrass: 0
Littleseed canarygrass; 62 g ai/ha
  Plant response rating, Canarygrass: 100
Littleseed canarygrass; 125 g ai/ha
  Plant response rating, Canarygrass: 80
Littleseed canarygrass; 250 g ai/ha
  Plant response rating, Canarygrass: 100
Spring wheat; 31 g ai/ha
  Plant response rating, Wheat, Spring: 0
Spring wheat; 62 g ai/ha
  Plant response rating, Wheat, Spring: 0
Spring wheat; 125 g ai/ha
  Plant response rating, Wheat, Spring: 30
Spring wheat; 250 g ai/ha
  Plant response rating, Wheat, Spring: 45
windgrass; 31 g ai/ha
  Plant response rating, Windgrass: 10
windgrass; 62 g ai/ha
  Plant response rating, Windgrass: 70
windgrass; 125 g ai/ha
  Plant response rating, Windgrass: 100
windgrass; 250 g ai/ha
  Plant response rating, Windgrass: 100
Broadleaf signalgrass; 31 g ai/ha
  Plant response rating, Signalgrass: 20
Broadleaf signalgrass; 62 g ai/ha
  Plant response rating, Signalgrass: 70
Broadleaf signalgrass; 125 g ai/ha
  Plant response rating, Signalgrass: 70
Broadleaf signalgrass; 250 g ai/ha
  Plant response rating, Signalgrass: 100
corn; 31 g ai/ha
  Plant response rating, Corn: 0
corn; 62 g ai/ha
  Plant response rating, Corn: 5
corn; 125 g ai/ha
  Plant response rating, Corn: 10
corn; 250 g ai/ha
  Plant response rating, Corn: 45
cotton; 31 g ai/ha
  Plant response rating, Cotton: 0
cotton; 62 g ai/ha
  Plant response rating, Cotton: 10
cotton; 125 g ai/ha
  Plant response rating, Cotton: 15
cotton; 250 g ai/ha
  Plant response rating, Cotton: 20
Eastern black nightshade; 31 g ai/ha
  Plant response rating, Nightshade: 0
Eastern black nightshade; 62 g ai/ha
  Plant response rating, Nightshade: 30
Eastern black nightshade; 125 g ai/ha
  Plant response rating, Nightshade: 100
Eastern black nightshade; 250 g ai/ha
  Plant response rating, Nightshade: 100
Fall panicum; 31 g ai/ha
  Plant response rating, Fall Panicum: 0
Fall panicum; 62 g ai/ha
  Plant response rating, Fall Panicum: 10
Fall panicum; 125 g ai/ha
  Plant response rating, Fall Panicum: 30
Fall panicum; 250 g ai/ha
  Plant response rating, Fall Panicum: 100
Field sandbur; 31 g ai/ha
  Plant response rating, Sandbur: 0
Field sandbur; 62 g ai/ha
  Plant response rating, Sandbur: 40
Field sandbur; 125 g ai/ha
  Plant response rating, Sandbur: 65
Field sandbur; 250 g ai/ha
  Plant response rating, Sandbur: 100
Giant foxtail; 31 g ai/ha
  Plant response rating, Foxtail, Giant: 20
Giant foxtail; 62 g ai/ha
  Plant response rating, Foxtail, Giant: 95
Giant foxtail; 125 g ai/ha
  Plant response rating, Foxtail, Giant: 100
Giant foxtail; 250 g ai/ha
  Plant response rating, Foxtail, Giant: 100
goosegrass; 31 g ai/ha
  Plant response rating, Goosegrass: 70
goosegrass; 62 g ai/ha
  Plant response rating, Goosegrass: 90
goosegrass; 125 g ai/ha
  Plant response rating, Goosegrass: 100
goosegrass; 250 g ai/ha
  Plant response rating, Goosegrass: 100
lambsquarters; 31 g ai/ha
  Plant response rating, Lambsquarters: 0
lambsquarters; 62 g ai/ha
  Plant response rating, Lambsquarters: 100
lambsquarters; 125 g ai/ha
  Plant response rating, Lambsquarters: 100
lambsquarters; 250 g ai/ha
  Plant response rating, Lambsquarters: 100
Millet foxtail; 31 g ai/ha
  Plant response rating, Foxtail, Millet: 0
Millet foxtail; 62 g ai/ha
  Plant response rating, Foxtail, Millet: 100
Millet foxtail; 125 g ai/ha
  Plant response rating, Foxtail, Millet: 100
Millet foxtail; 250 g ai/ha
  Plant response rating, Foxtail, Millet: 100
sorghum; 31 g ai/ha
  Plant response rating, Sorghum: 0
sorghum; 62 g ai/ha
  Plant response rating, Sorghum: 0
sorghum; 125 g ai/ha
  Plant response rating, Sorghum: 40
sorghum; 250 g ai/ha
  Plant response rating, Sorghum: 50
soybean; 31 g ai/ha
  Plant response rating, Soybean: 0
soybean; 62 g ai/ha
  Plant response rating, Soybean: 20
soybean; 125 g ai/ha
  Plant response rating, Soybean: 20
soybean; 250 g ai/ha
  Plant response rating, Soybean: 25
Tall waterhemp; 31 g ai/ha
  Plant response rating, Waterhemp: 40
Tall waterhemp; 62 g ai/ha
  Plant response rating, Waterhemp: 100
Tall waterhemp; 125 g ai/ha
  Plant response rating, Waterhemp: 100
Tall waterhemp; 250 g ai/ha
  Plant response rating, Waterhemp: 100
Yellow foxtail; 31 g ai/ha
  Plant response rating, Foxtail, Yellow: 20
Yellow foxtail; 62 g ai/ha
  Plant response rating, Foxtail, Yellow: 100
Yellow foxtail; 125 g ai/ha
  Plant response rating, Foxtail, Yellow: 100
Yellow foxtail; 250 g ai/ha
  Plant response rating, Foxtail, Yellow: 100
Woolly cupgrass; 31 g ai/ha
  Plant response rating, Cupgrass, Woolly: 30
Woolly cupgrass; 62 g ai/ha
  Plant response rating, Cupgrass, Woolly: 70
Woolly cupgrass; 125 g ai/ha
  Plant response rating, Cupgrass, Woolly: 50
Woolly cupgrass; 250 g ai/ha
  Plant response rating, Cupgrass, Woolly: 100
